{
  "source": "patent US6750330B1",
  "about": "“Lyophilized tubulins” (priority 1998, dated 2004)",
  "test_system": "MAP-rich tubulin",
  "assay": "96-well plate polymerization assay of tubulin ligands with lyophilized active tubulin",
  "assay_type": "biochemical, bovine",
  "conditions": "for rate of polymerization with increasing concentration: 20 minutes at 24° C., 100 μg/well MAP-rich tubulin; for effect on microtubule polymerization (O.D. 340 nm): 60 minutes at 24° C., 96-well plate",
  "procedure": "The dried powder was resuspended to 1 mg/ml protein in the G-PEM buffer that contained different tubulin ligands. The reactions were incubated at 24° C. and the optical density was determined between T=O and T=60 min. Wells A1, A2—duplicate control reactions; wells B1, B2—Duplicate 3 uM nocodazole reactions, and wells C1, C2—Duplicate 3 uM paclitaxel reactions. Other duplicate wells contained buffer with a random concentration of nocodazole between 0-30 uM.\nSimilar protocols were performed as in FIG. 9 legend except that paclitaxel was present at different concentrations and assays were performed in triplicate. Average nucleation (Onset) times, polymerization rates and maximum OD340 nm were compared to the control reactions (no drug) using CytoDYNAMIX Screen™ data analysis package (Cytoskeleton, Inc.).\nSimilar protocols were performed as in FIG. 9 legend except that nocodazole was present at different concentrations and assays were performed in triplicate. Average nucleation (Onset) times, polymerization rates and maximum OD340 nm were compared to the control reactions (no drug) using CytoDYNAMIX Screen™ data analysis package (Cytoskeleton, Inc.).\nNocodazole is similarly used as a negative control since it depolymerizes microtubules. Substances that may potentially have an effect on microtubule polymerization can be assayed by this method in which the optical density was measured at 340 nm over 60 minutes at a temperature sufficient to support polymerization (i.e., 15-45° C., preferably 24° C. for MAP-rich or 37° C. for pure tubulin).\nMAP-rich tubulin (100 μg/well) was lyophilized under the optimal conditions described in Example 1, in a 96-well plate. Ninety-six wells in a 96-well plate of lyophilized tubulin can be simultaneously reconstituted and their polymerization measured (See FIG. 8). […] In a similar manner, using an 8-channel hand held pipettor, various random nocodazole concentrations were tested for activity. In addition, controls were added to the assay. […] Nocodazole was similarly used as a negative control since it depolymerizes microtubules. The optical density was measured at 340 nm over 60 minutes at 24° C. as an indication of microtubule polymerization (See FIG. 9).\nPaclitaxel and nocodazole, anti-tumor agents, were assayed in G-PER buffer with lyophilized active tubulin.",
  "data": [
    {"smiles": "COC(=O)Nc1nc2ccc(C(=O)c3cccs3)cc2[nH]1", "note": "[nocodazole]", "values": [
      {"measurement": "rate of polymerization with increasing concentration", "result": "decrease in the rate of polymerization"},
      {"measurement": "effect on microtubule polymerization (O.D. 340 nm)", "result": "negative"}
    ]},
    {"smiles": "CC(=O)O[C@H]1C(=O)[C@@]2(C)[C@H]([C@H](OC(=O)c3ccccc3)[C@]3(O)C[C@H](OC(=O)[C@H](O)[C@@H](NC(=O)c4ccccc4)c4ccccc4)C(C)=C1C3(C)C)[C@]1(OC(C)=O)CO[C@@H]1C[C@@H]2O", "note": "[paclitaxel]", "values": [
      {"measurement": "rate of polymerization with increasing concentration", "result": "increased rate of polymerization"},
      {"measurement": "effect on microtubule polymerization (O.D. 340 nm)", "result": "enhancing"}
    ]}
  ]
}
